According to patent US4000310A, “Pharmaceutical compositions containing 6-methyl-3,4-diphenyl-3,4,5,6-tetrahydro-2-pyrone or derivatives thereof” (Union Chimique Continentale-U.C.C, priority 1974, dated 1976):

Legend:
mouse [1] = experiment: Interaction with electric shocks; format: in vivo, mouse (male, Swiss NMRI stock); conditions: mouse, 16, 32, 64 or 128 mg/kg oral 60 min before electric shock
Description: (§1) All the experiments described below were carried out using male rats weighing from 170 to 220 g (Wistar Af stock) and male mice weighing from 18 to 23 g (Swiss NMRI stock).

mouse [2] = experiment: Motor activity in the mouse (actimeters with photoelectric cells); format: in vivo, mouse (male, Swiss NMRI stock); conditions: for motor activity relative to the control group: 64 mg/kg oral
Description: as §1
Motor activity was determined using actimeters with photoelectric cells (Boissier and Simon, Arch. int. Pharmacodyn., 1965, 158, 212-221). A minimum of 12 animals were always used per point.
a. MDTP is administered orally at variable times before activity is measured.
b. When administered orally 30 minutes before the actograph is taken, MDTP increases the motor activity of mice.
c. When administered orally immediately before the actograph is taken, MDTP (128 mg/kg) brings a marked increase in the motor activity of mice up to the 150th minute (Table I).

mice = experiment: Test for antioxotremorine action; format: in vivo, mouse (male, Swiss NMRI stock); conditions: mice, 8, 16, 32 or 64 mg/kg i.p. or oral; oxotremorine 0.5 mg/kg i.p.
Description: as §1
In mice which had been dosed intraperitoneally or orally with 8, 16, 32 or 64 mg/kg of MDTP, the effects of oxotremorine (0.5 mg/kg given intraperitoneally) were unchanged, as far as hypothermia, tremors, tears, hypersalivation and defecation were concerned.

rat [3] = experiment: Avoidance conditioning in the rat (shuttle-box); format: in vivo, rat (male, Wistar Af stock); conditions: 64 mg/kg oral, 8 animals
Description: as §1
The avoidance conditioning was studied in the rat placed in a shuttle-box (with 2 compartments) (of. BOISSIER and SIMON: Therapie 1968, 23, 1267-1276).

mouse [4] = experiment: Observation of the animals, mouse; format: in vivo, mouse (male, Swiss NMRI stock)
Description: as §1
(§2) All the experiments took place in a laboratory with a constant temperature (22° ± 1° C).
(§3) All the experiments were carried out blind (without the experimenter knowing, at the time of the tests, which animals had received the substance presumed active).
(§4) Unless otherwise stated, 10 animals were always used per point.

mouse [5] = experiment: Effects of barbiturate hypnotics, mouse; format: in vivo, mouse (male, Swiss NMRI stock); conditions: mouse, 16, 32 or 64 mg/kg oral, with pentabarbitone or barbitone sodium
Description: as §1

animals [6] = experiment: animal or person; format: in vivo, rat and mouse
Description: an increase in the activity and alertness of animals without abnormal behaviour and particularly stereotyped movements ever appearing. Increased activity and alertness were found in both the rat and the mouse by observing the animals, measuring their motor activity and measuring their exploration of a board containing holes and the shortening of the reaction time of mice on a hot-plate. The increase is marked (according to the tests) from doses of 16 to 32 mg/kg given orally; it takes place rapidly after administration and lasts about 2 hours. These doses are far from the toxic level (ratio LD50/ED 50 approximately 20/1 in the mouse and over 10/1 in the rat);

mouse [7] = experiment: Hot-plate test on the mouse; format: in vivo, mouse (male, Swiss NMRI stock)
Description: as §1
This test was applied to measure the time taken or animals to react to a painful stimulus. 12 animals were used per point. 15 Minutes after oral administration of MDTP (64 mg/kg) the time taken for mice exposed to the hot-plate to react (by licking their rear paws) was 5.9 seconds, whereas the time taken by the control group was 9.5 seconds (difference significant at the threshold of 0.01).
On the other hand, the effects on this test of an analgesic dose of morphine was not changed -- either by increasing or reducing them -- by MDTP at the same dose.

rat [8] = experiment: Acute toxicity in the rat; format: in vivo
Description: as §1, §2, §3, §4
(§5) In the rat, with either oral or intraperitoneal administration, the LD50 of 6-methyl 3,4-diphenyl-3,4,5,6-tetrahydro 2-pyrone was over 300 mg/kg.

[9] = Acute toxicity in the rat; format: in vivo; conditions: in vivo
Description: as §1, §2, §3, §4, §5

rat [10] = experiment: Observation of the animals, rat; format: in vivo, rat (male, Wistar Af stock)
Description: as §1, §2, §3, §4

animals [11] = experiment: Test with the board containing holes; format: in vivo
Description: The method and apparatus described by BOISSIER and SIMON (Physiol. Behav. 1967, 2, 444-448) were used. During these experiments 15 animals were used per batch (except that 30 were used for the control group and 30 for the dose of 64 mg/kg).

mouse [12] = experiment: Conditioned inhibition, 4 plate test, mouse; format: in vivo, mouse (male, Swiss NMRI stock)
Description: as §1
A simple conditioned inhibition test was used, the 4 plate test (ARON an Coll, Neuropharmacology 1971, 10, 459-470).

mouse [13] = experiment: Determination of acute toxicity in the mouse; format: in vivo
Description: as §1, §2, §3, §4

[14] = Determination of acute toxicity in the mouse; format: in vivo; conditions: in vivo, Behrens and Karber
Description: as §1, §2, §3, §4

rat [15] = experiment: Effects of barbiturate hypnotics, rat; format: in vivo, rat (male, Wistar Af stock); conditions: rat, 16, 32 or 64 mg/kg oral, with pentabarbitone or barbitone sodium
Description: as §1

[16] = doses very close to lethal level
[17] = oral or intraperitoneal, from 16 mg/kg, below toxic level
[18] = oral or intraperitoneal, read-out: dose from which slight excitation is observed
[19] = 16 mg/kg orally 60 min before test
[20] = 32 mg/kg orally 60 min before test
[21] = 64 mg/kg orally 60 min before test
[22] = 128 mg/kg orally 60 min before test

SMILES: CC1CC(c2ccccc2)C(c2ccccc2)C(=O)O1 (stereo not drawn) [MDTP, 6-methyl-3,4-diphenyl-3,4,5,6-tetrahydro-2-pyrone]
- duration or form of convulsive attacks (mouse [1]): did not affect either the duration or the form of the convulsive attacks
- mortality after the attack (mouse [1]): did not lead to any increase in mortality after the attack
- motor activity relative to the control group (mouse [2]; 15 min pretreatment): 221%
- motor activity relative to the control group (mouse [2]; 30 min pretreatment): 192%
- motor activity relative to the control group (mouse [2]; 60 min pretreatment): 161%
- motor activity relative to the control group (mouse [2]; 120 min pretreatment): 136%
- Number of bars passed over by mice, 150 to 180 min (mouse [2]; 128 mg/kg orally, control group 8): 25
- Number of bars passed over by mice, 60 to 90 min (mouse [2]; 128 mg/kg orally, control group 12): 244
- Number of bars passed over by mice, 120 to 150 min (mouse [2]; 128 mg/kg orally, control group 14): 66
- Number of bars passed over by mice, 90 to 120 min (mouse [2]; 128 mg/kg orally, control group 15): 99
- Number of bars passed over by mice, 30 to 60 min (mouse [2]; 128 mg/kg orally, control group 82): 428
- Number of bars passed over by mice, 0 to 30 min (mouse [2]; 128 mg/kg orally, control group 390): 846
- minimal effective dose (mouse [2]; 0.5 h, mouse, oral, 30 min before actograph, read-out: dose from which increase in motor activity becomes significant): 32 mg/kg
- dose dependence of increase in motor activity (mouse [2]; mouse, oral, 30 min before actograph): proportional to the dose administered
- effects of oxotremorine (hypothermia, tremors, tears, hypersalivation, defecation) (mice): unchanged
- change in avoidance conditioning (rat [3]): did not produce any change in conditioning
- diameter of the pupils, rectal temperature (mouse [4]; doses below toxic level): no change in diameter of the pupils or the rectal temperature
- motor incoordination, abnormal or stereotyped movements (mouse [4]; doses below toxic level): not accompanied by motor incoordination or by abnormal or stereotyped movements
- hyperthermia (mouse [4]; [16]): moderate hyperthermia
- toxic signs (mouse [4]; in vivo): tremors, hyperreactivity to very intense stimuli, interaggressiveness and convulsive phenomena with the rear paws stretched
- excitation on observation (mouse [4]; [17]): slight excitation is observed with increased reaction to touching or to sound stimuli
- minimal effective dose (mouse [4]; [18]): 16 mg/kg
- change in time to fall asleep and sleeping period (mouse [5]): did not produce any change in the time taken to fall asleep or in the sleeping period
- signs of sympathetic excitation, sleep preventing action (animals [6]; in vivo): does not give rise to any signs of sympathetic excitation, any sleep preventing action
- sleep inhibiting effect (animals [6]; in vivo): does not have any sleep inhibiting effect
- duration of increase in activity and alertness (animals [6]; oral, rat and mouse): about 2 hours
- minimal effective dose (animals [6]; po, read-out: doses from which increase in activity and alertness is marked): 16 to 32 mg/kg
- time taken to react (licking rear paws) on hot-plate (mouse [7]; 64 mg/kg oral, 15 min after, control 9.5 seconds, significant at 0.01): 5.9 s
- change in effects of an analgesic dose of morphine on hot-plate test (mouse [7]; MDTP at the same dose): not changed
- ratio LD50/ED 50 (rat [8]): over 10/1
- LD50 ([9]; ip, intraperitoneal): > 300 mg/kg
- LD50 ([9]; oral): > 300 mg/kg
- sexual behaviour (rat [10]): An increase in sexual behaviour
- diameter of the pupils, rectal temperature (rat [10]; doses below toxic level): no change in diameter of the pupils or the rectal temperature
- motor incoordination, abnormal or stereotyped movements (rat [10]; doses below toxic level): not accompanied by motor incoordination or by abnormal or stereotyped movements
- hyperthermia (rat [10]; [16]): moderate hyperthermia
- toxic signs (rat [10]; in vivo): tremors, hyperreactivity to very intense stimuli, interaggressiveness and convulsive phenomena with the rear paws stretched
- excitation on observation (rat [10]; [17]): slight excitation is observed with increased reaction to touching or to sound stimuli
- minimal effective dose (rat [10]; [18]): 16 mg/kg
- displacements made in 5 min (animals [11]; [19]): 98 % of control group
- holes explored in 5 min (animals [11]; [19]): 120 % of control group
- displacements made in 5 min (animals [11]; [20]): 115 % of control group
- holes explored in 5 min (animals [11]; [20]): 131 % of control group
- displacements made in 5 min (animals [11]; [21]): 161 % of control group
- holes explored in 5 min (animals [11]; [21]): 140 % of control group
- displacements made in 5 min (animals [11]; [22]): 159 % of control group
- holes explored in 5 min (animals [11]; [22]): 141 % of control group
- minimal effective dose (animals [11]; oral, read-out: dose from which increase in number of holes explored becomes significant): 32 mg/kg
- change in conditioned inhibition (mouse [12]; mouse, 4, 8, 16, 32, 64 and 128 mg/kg): no change was observed in conditioned inhibition
- performance of the animals in 4 plate test (mouse [12]; mouse, 4 to 128 mg/kg): a slight increase in the performance of the animals
- ratio LD50/ED 50 (mouse [13]): approximately 20/1
- LD50 ([14]; ip, intraperitoneal): 150 mg/kg
- LD50 ([14]; oral): 625 mg/kg
- change in time to fall asleep and sleeping period (rat [15]): did not produce any change in the time taken to fall asleep or in the sleeping period
